Measured values reported in patent US7462641B2, “(2S,4S)-4-fluoro-1-[4-fluoro-beta-(4-fluorophenyl)-L-phenylalanyl]-2-pyrrolidinecarbonitrile p-toluenesulfonic acid salt and anhydrous crystalline forms thereof” (SmithKline Beecham Corporation, priority 2003, dated 2008).
Counter-ions that a name gives are not always drawn.

Legend:
[1] = Moisture sorption testing (gas flow microbalance, VTI SGA-100); format: physicochemical; conditions: for hygroscopicity: 25° C.
Description: The sample was equilibrated at 25° C. and 30% relative humidity and the relative humidity increased stepwise (adsorption) to 40, 50, 60, 70, 80, 90%—each relative humidity step was held until the sample equilibrated at that condition. Equilibrium was defined as a weight change of less than 0.015% in 5 minutes. The relative humidity was then decreased step wise (desorption) to 90, 80, 70, 60, 50, 40, 30, 20, 10, and 5%—each step held until equilibrium was reached. The equilibrium condition was the same as in the sorption phase. The % w/w increase or decrease in moisture content of the sample is reported for each equilibrated RH condition.
The sample was dried at 60C under a dry nitrogen stream until the rate of weight loss was less than 0.015% in 5 minutes. After drying the sample was equilibrated at 25C and the relative humidity increased stepwise (adsorption) to 5, 20, 45, 75, and 95%—each relative humidity step was held until the sample equilibrated at that condition or a 180 minute time limit was reached. Equilibrium was defined as a weight change of less than 0.015% in 5 minutes. The relative humidity was then decreased step wise (desorption) to 75, 45, and 20%—each step held until equilibrium was reached. The equilibrium condition was the same as in the sorption phase. The % w/w increase or decrease in moisture content of the sample is reported for each equilibrated RH condition.

[2] = biological target: DPP IV (Homo sapiens, UniProt P27487); conditions: as noted in WO 03/02531; cited from earlier work
DPP IV, sequence (P27487 whole entry, species assumed): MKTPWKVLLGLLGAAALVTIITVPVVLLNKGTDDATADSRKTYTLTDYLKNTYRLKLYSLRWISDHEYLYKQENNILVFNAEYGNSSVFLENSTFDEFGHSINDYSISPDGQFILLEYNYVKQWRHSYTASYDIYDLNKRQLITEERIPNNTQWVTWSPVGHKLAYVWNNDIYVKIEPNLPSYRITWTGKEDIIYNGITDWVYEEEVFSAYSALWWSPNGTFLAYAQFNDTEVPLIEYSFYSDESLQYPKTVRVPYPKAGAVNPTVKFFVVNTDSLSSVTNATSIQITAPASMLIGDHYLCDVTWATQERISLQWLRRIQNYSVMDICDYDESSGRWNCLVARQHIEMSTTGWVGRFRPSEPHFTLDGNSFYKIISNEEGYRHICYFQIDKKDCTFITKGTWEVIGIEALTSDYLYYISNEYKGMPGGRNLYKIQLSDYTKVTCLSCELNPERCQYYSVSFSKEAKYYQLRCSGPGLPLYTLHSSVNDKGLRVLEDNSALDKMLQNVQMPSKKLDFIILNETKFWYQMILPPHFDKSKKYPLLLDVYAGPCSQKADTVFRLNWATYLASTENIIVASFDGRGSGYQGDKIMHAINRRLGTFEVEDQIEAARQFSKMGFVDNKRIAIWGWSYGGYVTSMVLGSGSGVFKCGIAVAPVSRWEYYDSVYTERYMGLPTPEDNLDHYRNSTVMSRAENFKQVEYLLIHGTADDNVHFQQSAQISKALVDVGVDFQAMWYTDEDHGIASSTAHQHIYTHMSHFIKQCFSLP

[3] = Stability testing in 40 C/75% RH oven; format: physicochemical; conditions: after two (2) weeks in an 40 C/75% RH oven

Structure (SMILES) | hygroscopicity ([1]; hydrochloride) | water adsorbed ([1]; 95% relative humidity at 25° C.) [%] | inhibition activity of DPP IV [2] | hygroscopicity [1] | water adsorbed ([1]; relative humidity between 0% and 95% at 25C) | water adsorbed ([1]; relative humidity between 5% to 90% at 25° C.) | desorption of adsorbed water ([1]; when the relative humidity is decreased) | stability (purity data) [3]
N#C[C@@H]1C[C@H](F)CN1C(=O)[C@@H](N)C(c1ccc(F)cc1)c1ccc(F)cc1 [HCl salt, (2S,4S)-1-[(2S)-2-Amino-3,3-bis(4-fluorophenyl)propanoyl]-4-fluoropyrrolidine-2-carbonitrile hydrochloride, reference compound] | hygroscopic | > 10 | demonstrates inhibition activity of DPP IV | – | – | – | – | –
N#C[C@@H]1C[C@H](F)CN1C(=O)[C@@H](N)C(c1ccc(F)cc1)c1ccc(F)cc1 [anhydrate form 1, (2S,4S)-4-fluoro-1-[4-fluoro-β-(4-fluorophenyl)-L-phenylalanyl]-2-pyrrolidinecarbonitrile p-toluenesulfonic acid salt] | – | – | – | not hygroscopic | less than 1 % w/w | very little water | readily desorbs | beneficial properties with regard to stability
